The record followed here is patent US11267825B2 (AICURIS GMBH & CO. KG, priority 2017, dated 2022).

A value given as a limit tells only on which side of the number the result lay.

Test [1] concerns HBV. As to the kind of experiment: Determination of HBV DNA from the supernatants of HepAD38 cells (anti-HBV activity). To be noted: Hepatitis B virus, 144 h; HBV DNA in HepAD38 supernatant at day 6; read-out: Cell Activity (EC50). In kind it is cell-based, hepatitis B virus. The procedure:
Determination of HBV DNA from the Supernatants of HepAD38 Cells
The anti-HBV activity was analysed in the stable transfected cell line HepAD38, which has been described to secrete high levels of HBV virion particles (Ladner et al., 1997). In brief, HepAD38 cells were cultured at 37° C. at 5% CO2 and 95% humidity in 200 μl maintenance medium, which was Dulbecco's modified Eagle's medium/Nutrient Mixture F-12 (Gibco, Karlsruhe), 10% fetal bovine serum (PAN Biotech Aidenbach) supplemented with 50 μg/ml penicillin/streptomycin (Gibco, Karlsruhe), 2 mM L-glutamine (PAN Biotech, Aidenbach), 400 μg/ml G418 (AppliChem, Darmstadt) and 0.3 μg/ml tetracycline. Cells were subcultured once a week in a 1:5 ratio, but were usually not passaged more than ten times. For the assay 60,000 cells were seeded in maintenance medium without any tetracycline into each well of a 96-well plate and treated with serial half-log dilutions of test compound. To minimize edge effects the outer 36 wells of the plate were not used but were filled with assay medium. On each assay plate six wells for the virus control (untreated HepAD38 cells) and six wells for the cell control (HepAD38 cells treated with 0.3 μg/ml tetracycline) were allocated, respectively. In addition, one plate set with reference inhibitors like BAY 41-4109, entecavir, and lamivudine instead of screening compounds were prepared in each experiment. In general, experiments were performed thrice in triplicates. At day 6 HBV DNA from 100 μl filtrated cell culture supernatant (AcroPrep Advance 96 Filter Plate, […] Supor membran, PALL GmbH, Dreieich) was automatically purified on the MagNa Pure LC instrument using the MagNA Pure 96 DNA and Viral NA Small Volume Kit (Roche Diagnostics, Mannheim) according to the instructions of the manufacturer. EC50 values were calculated from relative copy numbers of HBV DNA. In brief, 5 μl of the 100 μl eluate containing HBV DNA were subjected to PCR LC480 Probes Master Kit (Roche) together with 1 μM antisense primer […], 0.5 μM sense primer […], 0.3 μM hybprobes […]-FL and LC640-[…]-PH (TIBMolBiol, Berlin) to a final volume of 12.5 μl. The PCR was performed on the Light Cycler 480 real time system (Roche Diagnostics, Mannheim) using the following protocol: Pre-incubation for 1 min at 95° C., amplification: 40 cycles×(10 sec at 95° C., 50 sec at 60° C., 1 sec at 70° C.), cooling for 10 sec at 40° C. Viral load was quantitated against known standards using HBV plasmid DNA of pCH-9/3091 (Nassal et al., 1990, Cell 63: 1357-1363) and the LightCycler 480 SW 1.5 software (Roche Diagnostics, Mannheim) and EC50 values were calculated using non-linear regression with GraphPad Prism 6 (GraphPad Software Inc., La Jolla, USA).

The target of test [2] is HBV core protein (UniProt P03146). Format: biochemical. As to conditions: read-out: Assembly Activity (IC50); BODIPY-FL labelled core protein, assembly started with NaCl, read after 6 min. The procedure:
Biochemical Capsid Assembly Assay
The screening for assembly effector activity was done based on a fluorescence quenching assay published by Zlotnick et al. (2007). The C-terminal truncated core protein containing 149 amino acids of the N-terminal assembly domain was fused to a unique cysteine residue at position 150 and was expressed in E. coli using the pET expression system (Merck Chemicals, Darmstadt). Purification of core dimer protein was performed using a sequence of size exclusion chromatography steps. In brief, the cell pellet from 1 L BL21 (DE3) Rosetta2 culture expressing the coding sequence of core protein cloned NdeI/XhoI into expression plasmid pET21b was treated for 1 h on ice with a native lysis buffer (Qproteome Bacterial Protein Prep Kit; Qiagen, Hilden). After a centrifugation step the supernatant was precipitated during 2 h stirring on ice with 0.23 g/ml of solid ammonium sulfate. Following further centrifugation the resulting pellet was resolved in buffer A (100 mM Tris, pH 7.5; 100 mM NaCl; 2 mM DTT) and was subsequently loaded onto a buffer A equilibrated CaptoCore 700 column (GE HealthCare, Frankfurt). The column flow through containing the assembled HBV capsid was dialyzed against buffer N (50 mM NaHCO3 pH 9.6; 5 mM DTT) before urea was added to a final concentration of 3M to dissociate the capsid into core dimers for 1.5 h on ice. The protein solution was then loaded onto a 1 L Sephacryl S300 column. After elution with buffer N core dimer containing fractions were identified by SDS-PAGE and subsequently pooled and dialyzed against 50 mM HEPES pH 7.5; 5 mM DTT. To improve the assembly capacity of the purified core dimers a second round of assembly and disassembly starting with the addition of 5 M NaCl and including the size exclusion chromatography steps described above was performed. From the last chromatography step core dimer containing fractions were pooled and stored in aliquots at concentrations between 1.5 to 2.0 mg/ml at −80° C.
Immediately before labelling the core protein was reduced by adding freshly prepared DTT in a final concentration of 20 mM. After 40 min incubation on ice storage buffer and DTT was removed using a Sephadex G-25 column (GE HealthCare, Frankfurt) and 50 mM HEPES, pH 7.5. For labelling 1.6 mg/ml core protein was incubated at 4° C. and darkness overnight with BODIPY-FL maleimide (Invitrogen, Karlsruhe) in a final concentration of 1 mM. After labelling the free dye was removed by an additional desalting step using a Sephadex G-25 column. Labelled core dimers were stored in aliquots at 4° C. In the dimeric state the fluorescence signal of the labelled core protein is high and is quenched during the assembly of the core dimers to high molecular capsid structures. The screening assay was performed in black 384 well microtiter plates in a total assay volume of 10 μl using 50 mM HEPES pH 7.5 and 1.0 to 2.0 μM labelled core protein. Each screening compound was added in 8 different concentrations using a 0.5 log-unit serial dilution starting at a final concentration of 100 μM, 31.6 μM or 10 μM. In any case the DMSO concentration over the entire microtiter plate was 0.5%. The assembly reaction was started by the injection of NaCl to a final concentration of […] which induces the assembly process to approximately 25% of the maximal quenched signal. 6 min after starting the reaction the fluorescence signal was measured using a Clariostar plate reader (BMG Labtech, Ortenberg) with an excitation of 477 nm and an emission of 525 nm. As 100% and 0% assembly control HEPES buffer containing 2.5 M and 0 M NaCl was used. Experiments were performed thrice in triplicates. EC50 values were calculated by non-linear regression analysis using the Graph Pad Prism 6 software (GraphPad Software, La Jolla, USA).

Chain of HBV core protein (P03146 whole entry, looked up): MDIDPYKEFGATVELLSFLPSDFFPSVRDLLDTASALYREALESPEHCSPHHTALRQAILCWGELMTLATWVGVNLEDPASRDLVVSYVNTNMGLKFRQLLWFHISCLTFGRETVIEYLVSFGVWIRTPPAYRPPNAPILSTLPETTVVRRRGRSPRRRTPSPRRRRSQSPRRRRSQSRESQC

As for `O=C(c1cc2ccccc2[nH]1)N1CCc2nc(-c3ncccn3)sc2C1` [Example 202, 2-[2-(pyrimidin-2-yl)-4H,5H,6H,7H-[1,3]thiazolo[5,4-c]pyridine-5-carbonyl]-1H-indole], the EC50 in test [1] is 1 to 10 µM. Besides, the IC50 in test [2] fell in the range of 5 to 10 µM.
For `CN(C)c1nc2c(s1)CN(C(=O)c1cc3c(F)ccc(F)c3[nH]1)CC2` [Example 133, 5-(4,7-difluoro-1H-indole-2-carbonyl)-N,N-dimethyl-4H,5H,6H,7H-[1,3]thiazolo[5,4-c]pyridin-2-amine] the same measures were 1 to 10 µM and below 100 µM.
For `O=C(Nc1nc2c(s1)CN(C(=O)c1cc3c(Cl)cccc3[nH]1)CC2)C1CCOCC1` [Example 316, N-[5-(4-chloro-1H-indole-2-carbonyl)-4H,5H,6H,7H-[1,3]thiazolo[5,4-c]pyridin-2-yl]oxane-4-carboxamide] the same measures were below 1 µM and below 5 µM.
For `Nc1nc2c(s1)CN(C(=O)c1cc3ccc(C(F)(F)F)cc3[nH]1)CC2` [Example 199, 5-[6-(trifluoromethyl)-1H-indole-2-carbonyl]-4H,5H,6H,7H-[1,3]thiazolo[5,4-c]pyridin-2-amine] the same measures were below 1 µM and below 5 µM.
Regarding `Cc1nc2c(s1)CN(C(=O)c1cc3c(Cl)ccc(Cl)c3[nH]1)CC2` [Example 186, 4,7-dichloro-2-{2-methyl-4H,5H,6H,7H-[1,3]thiazolo[5,4-c]pyridine-5-carbonyl}-1H-indole], in test [1], the half-maximal effective concentration (EC50) was below 100 µM. In addition, in test [2], the IC50 is below 100 µM.
Take `O=C(c1cc2c(CO)cccc2[nH]1)N1CCc2nc(NCC3CCOC3)sc2C1` (stereo not shown) [Example 245, [2-(2-{[(oxolan-3-yl)methyl]amino}-4H,5H,6H,7H-[1,3]thiazolo[5,4-c]pyridine-5-carbonyl)-1H-indol-4-yl]methanol]: the half-maximal effective concentration (EC50) in test [1] was below 1 µM. In addition, in test [2], the IC50 was below 100 µM.
In the same order, the values of `O=C(c1cc2ccccc2[nH]1)N1CCc2nc(NCCCO)sc2C1` [Example 129, 3-{[5-(1H-indole-2-carbonyl)-4H,5H,6H,7H-[1,3]thiazolo[5,4-c]pyridin-2-yl]amino}propan-1-ol] are below 1 µM and below 5 µM.
For `O=C(c1cc2ccccc2[nH]1)N1CCc2nc(NC[C@H]3C[C@@H]4CC[C@H]3O4)sc2C1` (racemic) [Example 34, (+/−)-cis-5-(1H-indole-2-carbonyl)-N-{1[(1R,2R,4S)-7-oxabicyclo[2.2.1]heptan-2-yl]methyl}-4H,5H,6H,7H-[1,3]thiazolo[5,4-c]pyridin-2-amine] the same measures were below 1 µM and below 5 µM.
For `COCC1(C(=O)Nc2nc3c(s2)CN(C(=O)c2cc4ccccc4[nH]2)CC3)CC1` [Example 330, N-[5-(1H-indole-2-carbonyl)-4H,5H,6H,7H-[1,3]thiazolo[5,4-c]pyridin-2-yl]-1-(methoxymethyl)cyclopropane-1-carboxamide] the same measures were below 1 µM and 5 to 10 µM.
Consider `CC(C)(C)OC(=O)N1CCOCC1CNc1nc2c(s1)CN(C(=O)c1cc3ccccc3[nH]1)CC2` (stereo not shown) [Example 238, tert-butyl 3-({[5-(1H-indole-2-carbonyl)-4H,5H,6H,7H-[1,3]thiazolo[5,4-c]pyridin-2-yl]amino}methyl)morpholine-4-carboxylate], for which the 50% effective concentration (EC50) in test [1] fell in the range of 1 to 10 µM. In test [2], the IC50 is below 100 µM.
For `O=C(c1cc2ccc(Br)cc2[nH]1)N1CCc2nc(NCC3(O)CCC3)sc2C1` [Example 365, 1-({[5-(6-bromo-1H-indole-2-carbonyl)-4H,5H,6H,7H-[1,3]thiazolo[5,4-c]pyridin-2-yl]amino}methyl)cyclobutan-1-ol] the same measures were below 1 µM and below 5 µM.
In the same order, the values of `COCC(=O)Nc1nc2c(s1)CN(C(=O)c1cc3ccccc3[nH]1)CC2` [Example 3, N-[5-(1H-indole-2-carbonyl)-4H,5H,6H,7H-[1,3]thiazolo[5,4-c]pyridin-2-yl]-2-methoxyacetamide] are below 1 µM and below 5 µM.
As for `O=C(c1cc2ccccc2[nH]1)N1CCc2ncsc2C1` [Example 200, 2-{4H,5H,6H,7H-[1,3]thiazolo[5,4-c]pyridine-5-carbonyl}-1H-indole], in test [1], the concentration giving a half-maximal response (EC50) is 1 to 10 µM. Further, in test [2], the IC50 was below 5 µM.
In the same order, the values of `Cc1nc2c(s1)CN(C(=O)c1cc3cccc(OC(F)F)c3[nH]1)CC2` [Example 182, 7-(difluoromethoxy)-2-{2-methyl-4H,5H,6H,7H-[1,3]thiazolo[5,4-c]pyridine-5-carbonyl}-1H-indole] are 1 to 10 µM and below 100 µM.
For `CCc1ccc(F)c2[nH]c(C(=O)N3CCc4nc(NCC5(CO)CC5)sc4C3)cc12` [Example 236, [1-({[5-(4-ethyl-7-fluoro-1H-indole-2-carbonyl)-4H,5H,6H,7H-[1,3]thiazolo[5,4-c]pyridin-2-yl]amino}methyl)cyclopropyl]methanol] the same measures were below 1 µM and below 5 µM.
For the compound `O=C(c1cc2ccccc2[nH]1)N1CCc2nc(NC[C@@H]3C[C@@H]4CC[C@H]3O4)sc2C1` (racemic) [Example 33, (+/−)-trans-5-(1H-indole-2-carbonyl)-N-{[(1R,2S,4S)-7-oxabicyclo[2.2.1]heptan-2-yl]methyl}-4H,5H,6H,7H-[1,3]thiazolo[5,4-c]pyridin-2-amine], the EC50 in test [1] was below 1 µM. Also, in test [2], the IC50 is below 5 µM.
Turning to `O=C(c1cc2ccccc2[nH]1)N1CCc2nc(NC(CO)CO)sc2C1` [Example 43, 2-{[5-(1H-indole-2-carbonyl)-4H,5H,6H,7H-[1,3]thiazolo[5,4-c]pyridin-2-yl]amino}propane-1,3-diol], the half-maximal effective concentration (EC50) in test [1] was below 1 µM. The IC50 in test [2] is below 5 µM.
